Experimental data reported in patent US20170129916A1, “NOVEL BETULINIC PROLINE IMIDAZOLE DERIVATIVES AS HIV INHIBITORS” (HETERO RESEARCH FOUNDATION, priority 2014, published 2017).

What was measured:
[1] = test system: HIV-1 strains, for e.g., 92HT599; assay: Antiviral activity: p24 estimation in MT-2 cells infected with HIV-1; type: cell-based; conditions: Human immunodeficiency virus 1, MT2, MT-2 cells infected with HIV-1, p24, ~96 hours; for IC50: read-out: Antiviral activity IC50 (nM) Efficacy IC50
Method in brief: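 MT-2 cells infected with HIV-1 (e.g. 92HT599), plated at 30,000 cells/well with compound (DMSO ≤1%) and incubated ~96 h. Supernatant p24 quantified by kit; percent inhibition relative to vehicle controls.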

[2] = Single dose oral pharmacokinetic study; type: in vivo; conditions: mouse, mice, 30 mg/kg, plasma; for AUC(0-t): read-out: Mice oral PK @30 mg/kg AUC 0-t; for Cmax: read-out: Mice oral PK @30 mg/kg Cmax
Method in brief: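 Rats or mice received 30 mg/kg orally at 10 ml/kg dose volume. Retro-orbital blood was taken into K3 EDTA at defined intervals under light ether anesthesia and centrifuged to plasma. Plasma levels were measured by LC-MS-MS.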

SMILES | IC50 [1] [nM] | AUC(0-t) [2] [µg·h/mL] | Cmax [2] [ng/mL] | inhibition at 0.1 µM [1] [%] | inhibition at 1 µM [1] [%]
C=C(C)[C@@H]1CC[C@]2(C(=O)N3CCC[C@H]3c3nnc(-c4ccccc4)o3)CC[C@]3(C)[C@H](CC[C@@H]4[C@@]5(C)CC[C@H](OC(=O)[C@H]6C[C@@H](C(=O)O)C6(C)C)C(C)(C)[C@@H]5CC[C@]43C)[C@@H]12 [Compound 11, (1R,3S)-2,2-dimethyl-3-((((1R,3aS,5aR,5bR,7aR,9S,11aR,11bR,13aR,13bR)-5a,5b,8,8,11a-pentamethyl-3a-((S)-2-(5-phenyl-1,3,4-oxadiazol-2-yl)pyrrolidine-1-carbonyl)-1-(prop-1-en-2-yl)icosahydro-1H-cyclopenta[a]chrysen-9-yl)oxy)carbonyl)cyclobutane-1-carboxylic acid] | 5.96 | 403 | 16300 | – | –
C=C(C)[C@@H]1CC[C@]2(C(=O)N3CCC[C@H]3c3ncc(-c4ccc(OC)cc4)[nH]3)CC[C@]3(C)[C@H](CC[C@@H]4[C@@]5(C)CC[C@H](OC(=O)CC(C)(C)C(=O)O)C(C)(C)[C@@H]5CC[C@]43C)[C@@H]12 [Compound 46, 4-(((1R,3aS,5aR,5bR,7aR,9S,11aR,11bR,13aR,13bR)-3a-((S)-2-(5-(4-methoxyphenyl)-1H-imidazol-2-yl)pyrrolidine-1-carbonyl)-5a,5b,8,8,11a-pentamethyl-1-(prop-1-en-2-yl)icosahydro-1H-cyclopenta[a]chrysen-9-yl)oxy)-2,2-dimethyl-4-oxobutanoic acid] | 11 | 153 | 8710 | – | –
C=C(C)[C@@H]1CC[C@]2(C(=O)N3CCC[C@H]3c3ncc(C(F)(F)F)[nH]3)CC[C@]3(C)[C@H](CC[C@@H]4[C@@]5(C)CC[C@H](OC(=O)[C@H]6C[C@@H](C(=O)O)C6(C)C)C(C)(C)[C@@H]5CC[C@]43C)[C@@H]12 [Compound 34, (1R,3S)-2,2-dimethyl-3-((((1R,3aS,5aR,5b,7aR,9S,11aR,11bR,13aR,13bR)-5a,5b,8,8,11a-pentamethyl-1-(prop-1-en-2-yl)-3a-((S)-2-(5-(trifluoromethyl)-1H-imidazol-2-yl)pyrrolidine-1-carbonyl)icosahydro-1H-cyclopenta[a]chrysen-9-yl)oxy)carbonyl)cyclobutane-1-carboxylic acid] | 6.66 | 417 | 18700 | 86 | 100
CC(C)(CC(=O)O)CC(=O)O[C@H]1CC[C@]2(C)[C@H]3CC[C@@H]4[C@H]5[C@H](C6(C)CC6)CC[C@]5(C(=O)N5CCC[C@H]5c5ncc(-c6ccccn6)[nH]5)CC[C@@]4(C)[C@]3(C)CC[C@H]2C1(C)C [Compound 63, 3,3-dimethyl-5-oxo-5-(((1R,3aS,5aR,5bR,7aR,9S,11aR,11bR,13aR,13bR)-5a,5b,8,8,11a-pentamethyl-1-(1-methylcyclopropyl)-3a-((S)-2-(5-(pyridin-2-yl)-1H-imidazol-2-yl)pyrrolidine-1-carbonyl)icosahydro-1H-cyclopenta[a]chrysen-9-yl)oxy)pentanoic acid] | 3.6 | 120 | 4470 | – | –
C=C(C)[C@@H]1CC[C@]2(C(=O)N3C[C@H](OCCOC)C[C@H]3c3nc(-c4cccc(F)c4)c[nH]3)CC[C@]3(C)[C@H](CC[C@@H]4[C@@]5(C)CC[C@H](OC(=O)[C@H]6C[C@@H](C(=O)O)C6(C)C)C(C)(C)[C@@H]5CC[C@]43C)[C@@H]12 [Compound 8, (11R,3S)-3-((((1R,3aS,5aR,5bR,7aR,9S,11aR,11bR,13aR,13bR)-3a-((2S,4R)-2-(4-(3-fluorophenyl)-1H-imidazol-2-yl)-4-(2-methoxyethoxy)pyrrolidine-1-carbonyl)-5a,5b,8,8,11a-pentamethyl-1-(prop-1-en-2-yl)icosahydro-1H-cyclopenta[a]chrysen-9-yl)oxy)carbonyl)-2,2-dimethylcyclobutane-1-carboxylic acid] | 61.1 | 1240 | 41300 | – | –
C=C(C)[C@@H]1CC[C@]2(C(=O)N3CCC[C@H]3c3nnc(-c4ccccc4)[nH]3)CC[C@]3(C)[C@H](CC[C@@H]4[C@@]5(C)CC[C@H](OC(=O)CC(C)(C)C(=O)O)C(C)(C)[C@@H]5CC[C@]43C)[C@@H]12 [Compound 48, 2,2-dimethyl-4-oxo-4-(((1R,3aS,5aR,5bR,7aR,9S,11aR,11bR,13aR,13bR)-5a,5b,8,8,11a-pentamethyl-3a-((S)-2-(5-phenyl-4H-1,2,4-triazol-3-yl)pyrrolidine-1-carbonyl)-1-(prop-1-en-2-yl)icosahydro-1H-cyclopenta[a]chrysen-9-yl)oxy)butanoic acid] | 5.8 | 299 | 20800 | – | –
CC(C)(C)c1c[nH]c([C@@H]2CCCN2C(=O)[C@]23CC[C@@H](C4(C)CC4)[C@@H]2[C@H]2CC[C@@H]4[C@@]5(C)CC[C@H](OC(=O)[C@H]6C[C@@H](C(=O)O)C6(C)C)C(C)(C)[C@@H]5CC[C@@]4(C)[C@]2(C)CC3)n1 [Compound 56, (1R,3S)-3-((((1R,3aS,5aR,5bR,7aR,9S,11aR,11bR,13aR,13bR)-3a-((S)-2-(4-(tert-butyl)-1H-imidazol-2-yl)pyrrolidine-1-carbonyl)-5a,5b,8,8,11a-pentamethyl-1-(1-methylcyclopropyl)icosahydro-1H-cyclopenta[a]chrysen-9-yl)oxy)carbonyl)-2,2-dimethylcyclobutane-1-carboxylic acid] | 56.2 | 375 | 12000 | – | –
C=C(C)[C@@H]1CC[C@]2(C(=O)N3CCC[C@H]3c3nc(C(C)C)c[nH]3)CC[C@]3(C)[C@H](CC[C@@H]4[C@@]5(C)CC[C@H](OC(=O)[C@H]6C[C@@H](C(=O)O)C6(C)C)C(C)(C)[C@@H]5CC[C@]43C)[C@@H]12 [Compound 14, (1R,3S)-3-((((1R,3aS,5aR,5bR,7aR,9S,11aR,11bR,13aR,13bR)-3a-((S)-2-(4-isopropyl-1H-imidazol-2-yl)pyrrolidine-1-carbonyl)-5a,5b,8,8,11a-pentamethyl-1-(prop-1-en-2-yl)icosahydro-1H-cyclopenta[a]chrysen-9-yl)oxy)carbonyl)-2,2-dimethylcyclobutane-1-carboxylic acid] | 0.138 | 437 | 19600 | – | –
C=C(C)[C@@H]1CC[C@]2(C(=O)N3CCC[C@H]3c3nc(C)c(C)[nH]3)CC[C@]3(C)[C@H](CC[C@@H]4[C@@]5(C)CC[C@H](OC(=O)[C@H]6C[C@@H](C(=O)O)C6(C)C)C(C)(C)[C@@H]5CC[C@]43C)[C@@H]12 [Compound 35, (1R,3S)-3-((((1R,3aS,5aR,5bR,7aR,9S,11aR,11bR,13aR,13bR)-3a-((S)-2-(4,5-dimethyl-1H-imidazol-2-yl)pyrrolidine-1-carbonyl)-5a,5b,8,8,11a-pentamethyl-1-(prop-1-en-2-yl)icosahydro-1H-cyclopenta[a]chrysen-9-yl)oxy)carbonyl)-2,2-dimethylcyclobutane-1-carboxylic acid] | 2.81 | 250 | 14000 | 100 | 100
